Assay results published in patent US6794365B2, “Malonic acid derivatives, processes for their preparation their use and pharmaceutical compositions containing them” (Aventis Pharma Deutschland GmbH, priority 2000, dated 2004).
Where a name gives a salt, the structure may show the parent alone. Read-outs that look alike come from different tables or passages of the source.

B1: antistasin (protein, UniProt P15358 18-136, looked up)
Antistasin: QGPFGPGCEEAGCPEGSACNIITDRCTCSGVRCRMHCPHGFQRSRYGCEFCKCRLEPMKATCDISECPEGMMCSRLTNKCDCKIDINCRKTCPNGLKRDKLGCEYCECRPKRKLIPRLS

Legend:
factor Xa [1] = biological target: T1, factor Xa (Homo sapiens, UniProt P00742); assay: In vitro Factor Xa assay (Test 1a), chromogenic substrate S-2765; assay type: biochemical; design: purchased Enzyme Research Laboratories, Inc; South Bend, Ind; settings: Factor Xa inhibitory activity; Ki from IC50 corrected for substrate competition; 25° C., pH 7.8; read-out: Ki (FXa)
T1 sequence (P00742 235-488 limits assumed): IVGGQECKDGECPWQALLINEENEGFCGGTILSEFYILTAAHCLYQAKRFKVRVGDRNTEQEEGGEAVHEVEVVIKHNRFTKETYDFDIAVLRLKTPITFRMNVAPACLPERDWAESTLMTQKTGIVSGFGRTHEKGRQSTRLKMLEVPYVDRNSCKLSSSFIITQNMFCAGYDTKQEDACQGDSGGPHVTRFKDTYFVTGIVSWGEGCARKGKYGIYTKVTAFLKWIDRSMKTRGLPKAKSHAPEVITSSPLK
T1 sequence (P00742 41-179 partner limits assumed): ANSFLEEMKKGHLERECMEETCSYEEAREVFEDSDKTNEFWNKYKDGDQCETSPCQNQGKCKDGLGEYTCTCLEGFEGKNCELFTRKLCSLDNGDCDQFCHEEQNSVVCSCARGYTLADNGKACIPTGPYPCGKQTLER
Procedure: Purified enzymes are used in chromogenic assays. To determine the inhibition constant, the IC50 value is corrected for competition with substrate using the formula: […] where Km is the Michaelis-Menten-constant (Y.-C. Chen and W. H. Prusoff, Biochem. Pharmacol. 22: […] (1973), which is incorporated herein by reference). TBS-PEG buffer (50 mM Tris-Cl, pH 7.8, 200 mM NaCl, 0.05% (w/v) PEG-8000, 0.02% (w/v) NaN3) is used for this assay. The IC50 is determined by combining in appropriate wells of a Costar half-area microtiter plate 25 μl human factor Xa (Enzyme Research Laboratories, Inc.; South Bend, Ind.) in TBS-PEG; 40 μl 10% (v/v) DMSO in TBS-PEG (uninhibited control) or various concentrations of the compound to be tested diluted in 10% (v/v) DMSO in TBS-PEG; and substrate S-2765 (N-benzyloxycarbonyl-[…]-nitroanilide; Kabi Pharmacia, Inc.; Franklin Ohio) in TBS-PEG. […] The initial velocity of chromogenic substrate hydrolysis is measured by the change in absorbance at 405 nm using a Bio-tek Instruments kinetic plate reader ([…] 25° C. during the linear portion of the time course (usually 1.5 min after addition of substrate).

thrombin and factor Xa = settings: rate of inactivation thrombin vs factor Xa; cited from earlier work
[2] = TAP at less than about two fold aPTT prolongation; heparin at doses causing five fold aPTT increase; cited from earlier work
factor Xa [3] = biological target: T1, factor Xa; settings: cited from earlier work
[4] = recombinantly-produced inhibitor; cited from earlier work
[5] = subcutaneous; cited from earlier work

Molecule | Ki (factor Xa [1]) [nM] | prevention of high-shear arterial thrombosis and reduced flow in graft [2] | Ki (factor Xa [3]) [nM] | prevention of clotting [4] | other results
N=C(N)NCCC[C@H](NC(=O)[C@@H](NC(=O)C(Cc1ccc(C(=N)N)cc1)C(=O)NCc1ccccc1)C1CCCCC1)C(=O)O (stereo partly drawn) [Example 82, 2-(S)-{2-(S)-[2-Benzylcarbamoyl-3-(4-carbamimidoyl-phenyl)-propionylamino]-2-cyclohexyl-acetylamino}-5-guanidino-pentanoic acid trifluoroacetic acid salt] | 39.3 | – | – | – | –
C=CCNC(=O)C(Cc1ccc(C(=N)N)cc1)C(=O)N[C@@H](CCC(=O)O)C(=O)N[C@@H](CCCNC(=N)N)C(=O)N[C@@H](CC1CCCCC1)C(N)=O (stereo partly drawn) [Example 89, 4-(S)-[2-Allylcarbamoyl-3-(4-carbamimidoyl-phenyl)-propionylamino]-4-[1-(S)-(1-(S)-carbamoyl-2-cyclohexyl-ethylcarbamoyl)-4-guanidino-butylcarbamoyl]-butyric acid trifluoroacetic acid salt] | 6480 | – | – | – | –
CN(Cc1ccccc1)C(=O)C(Cc1ccc(C(=N)N)cc1)C(=O)N[C@H](C(=O)N[C@@H](CCCNC(=N)N)C(N)=O)C1CCCCC1 (stereo partly drawn) [Example 144, N-Benzyl-2-(4-carbamimidoyl-benzyl)-N′-[(S)-(1-(S)-carbamoyl-4-guanidino-butylcarbamoyl)-cyclohexyl-methyl]-N-methyl-malonamide trifluoroacetic acid salt] | 11 | – | – | – | –
heparin [reference compound] | – | did not prevent thrombosis | – | – | thrombin inactivated faster than factor Xa (thrombin and factor Xa): approximately 100 times
tick anticoagulant peptide (YNRLCIKPRDWIDECDSNEGGERAYFRNGKGGCDSFWICPEDHTGADYYSSYRDCFNACI; UniProt P17726 1-60, looked up) [TAP] | – | effectively prevents | ~0.5 | prevent clotting | –
B1 | – | – | 0.05 | prevent clotting | treatment effect in DIC model [5]: effective treatment
